Values joined by “and” are separate entries in the source; they are usually repeats but may differ in a detail not shown here. Equal entries are not always repeated.
Assays:
[1] = target: T1, recombinant His-HSL (hormone-sensitive lipase) (Rattus norvegicus, UniProt P15304); experiment: Assay for potency of inhibition on HSL activity (neutral cholesteryl ester hydrolase activity, cholesteryl [1-14C]oleate), Example 1; assay type: biochemical; details: for % inhibition of HSL: in the presence of DTT (1 mM), inhibitor range 0-2.4 mg/mL (FIG. 1, Table 1); for HSL Activity (DPM) (average): HSL + DTT (1 mM), control without inhibitor 1585.64 DPM
T1 construct: cloning full-length rat HSL cDNA into the SmaI site of pAcHLT-A; His6 (N); made in house; host or cells: Sf21 insect cells (baculovirus, BaculoGold)
T1 sequence (P15304 1-768 isoform P15304-2): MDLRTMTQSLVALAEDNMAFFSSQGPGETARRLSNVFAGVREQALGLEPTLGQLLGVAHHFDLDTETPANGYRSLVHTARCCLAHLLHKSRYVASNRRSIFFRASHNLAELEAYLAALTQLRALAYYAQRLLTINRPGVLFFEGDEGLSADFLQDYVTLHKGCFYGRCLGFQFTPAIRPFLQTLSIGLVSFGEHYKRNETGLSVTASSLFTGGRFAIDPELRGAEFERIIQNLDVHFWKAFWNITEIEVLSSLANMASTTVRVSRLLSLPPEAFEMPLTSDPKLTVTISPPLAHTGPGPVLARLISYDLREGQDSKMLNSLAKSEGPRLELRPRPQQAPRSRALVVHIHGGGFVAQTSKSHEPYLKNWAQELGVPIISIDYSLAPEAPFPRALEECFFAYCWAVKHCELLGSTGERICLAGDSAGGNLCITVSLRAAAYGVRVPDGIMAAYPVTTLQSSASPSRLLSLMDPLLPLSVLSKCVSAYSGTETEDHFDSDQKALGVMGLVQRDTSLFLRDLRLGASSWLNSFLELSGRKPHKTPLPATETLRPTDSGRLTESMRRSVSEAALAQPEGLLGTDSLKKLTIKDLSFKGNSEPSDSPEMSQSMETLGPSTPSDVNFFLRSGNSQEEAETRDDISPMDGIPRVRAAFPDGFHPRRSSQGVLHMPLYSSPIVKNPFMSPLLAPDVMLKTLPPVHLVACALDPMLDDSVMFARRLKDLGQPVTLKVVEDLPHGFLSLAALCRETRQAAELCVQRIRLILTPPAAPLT
Description: Production of Recombinant HSL: Recombinant His-HSL was generated by cloning full-length rat HSL cDNA into the SmaI site of pAcHLT-A containing a His6 tag. pAcHLT-A-HSL (5 μg) was co-transfected into Sf21 cells with 0.5 μg of BaculoGold™ DNA using the transfection kit from the manufacturer. The titer of the recombinant virus was determined using an end point dilution assay, and the virus was re-amplified to a final titer of 1.5×10^7 pfu/ml. To produce recombinant proteins, Sf21 cells were grown in 150 mm Petri dishes and each 2×10^7 cells were infected with 100 μl of the high titer recombinant virus; cells were harvested three days after infection. After harvesting and cell extraction, His-HSL was purified on a Ni-agarose column.
Preparation of Substrate for Neutral Cholesteryl Ester Hydrolase Activity Assay: HSL activity was determined as neutral cholesteryl ester hydrolase activity using a cholesteryl[1-14C]oleate emulsion for measurement of cellular activity, as described previously. Substrate for the cholesteryl ester assay was prepared by adding 1.25 μCi cholesteryl [1-14C]oleate (purified by thin-layer chromatography), 0.043 mmol phosphatidylcholine, and 0.011 mmol cholesteryl oleate into 2.5 mL of 100 mM potassium phosphate buffer (pH 7.0) containing 5 mM sodium taurocholate. The substrate solution was vortexed and then sonicated for 3 hours with a Branson Sonifier/Cell Disruptor model W-350 on an output setting of 5.0 (50%). The substrate was centrifuged at 3000 rpm for 15 min to remove metallic fragments released by the probe and stored under nitrogen at 4° C. for up to one week.
Preparation of Inhibitor Stock Solution: Inhibitors (fraction # O-4355, O-4350, O-4361, O-4456, O-4457) were obtained from olives, olive oil, roots, bark and leaves from olea europeae species as previously described (Paiva-Martins et al., J. Agric. Food Chem., 49:4214-4219, 2001) and dissolved in 200 μL DMSO with 800 μL distilled water at a concentration of 10 mg/ml. This was regarded as stock solution. 0-60 μL of the stock solution were added to the HSL assay to achieve a final concentration of 0-2.4 mg/ml of the inhibitors. The same volume of DMSO without inhibitors was performed as a control.
Assay for Potency of Inhibition on HSL Activity by the Inhibitors: Aliquots of recombinant HSL protein and various concentrations of inhibitors (0-2.4 mg/mL final concentration) were mixed and the volume adjusted to 100 μL and mixed with 140 μL 0.05% bovine serum albumin in 100 mM potassium phosphate, pH 7.0. After the addition of 10 μL of substrate (100 μM final concentration), the assay was carried out at 37° C. for 60 min. The reaction was stopped by the addition of chloroform:methanol:heptane (250:230:180). After the addition of borate/carbonate buffer (0.1 M, pH, 10.5), the tubes were vortexed and centrifuged, and aliquots of the upper phase were taken for liquid scintillation counting in a Beckman scintillation counter.

COX-2 = target: T2, COX-2 (Homo sapiens, UniProt P35354); details: Smith et al., Organic Letters, 7:5075-5078, 2005; cited from earlier work
T2 sequence (P35354 18-604): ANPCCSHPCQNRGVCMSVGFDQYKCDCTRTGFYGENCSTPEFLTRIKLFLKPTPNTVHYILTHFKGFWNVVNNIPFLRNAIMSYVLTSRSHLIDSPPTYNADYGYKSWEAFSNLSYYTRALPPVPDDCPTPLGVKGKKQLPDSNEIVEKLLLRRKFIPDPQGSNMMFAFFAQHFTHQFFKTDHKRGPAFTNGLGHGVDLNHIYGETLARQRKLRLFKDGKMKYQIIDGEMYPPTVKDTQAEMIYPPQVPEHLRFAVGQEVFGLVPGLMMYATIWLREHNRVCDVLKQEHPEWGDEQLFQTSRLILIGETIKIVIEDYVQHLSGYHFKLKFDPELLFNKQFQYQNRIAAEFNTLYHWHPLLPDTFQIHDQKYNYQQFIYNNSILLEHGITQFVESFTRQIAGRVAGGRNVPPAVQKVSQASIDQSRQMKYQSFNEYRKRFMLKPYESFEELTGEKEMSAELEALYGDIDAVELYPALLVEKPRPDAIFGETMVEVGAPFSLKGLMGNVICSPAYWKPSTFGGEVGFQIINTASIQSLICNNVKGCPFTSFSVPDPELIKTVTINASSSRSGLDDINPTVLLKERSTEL

For `CC=C(C=O)C(CC=O)CC(=O)OCCc1ccc(O)c(O)c1` (stereo not drawn) [O-4457, 3,4-dihydroxyphenylelenolic acid dialdehyde], the “% inhibition of HSL” value [1] was 97% and 97.95%, the “HSL Activity (DPM) (average)” value ([1]; inhibitor 0.4 mg/mL) was 214.85 DPM and the “HSL Activity (DPM) (average)” value ([1]; inhibitor 0.8 mg/mL) was 87.105 DPM. The “HSL Activity (DPM) (average)” value ([1]; inhibitor 1.2 mg/mL) was 48.025 DPM, the “HSL Activity (DPM) (average)” value ([1]; inhibitor 1.6 mg/mL) was 49.885 DPM and the “HSL Activity (DPM) (average)” value ([1]; inhibitor 2.0 mg/mL) was 39.545 DPM. For the same molecule, the “HSL Activity (DPM) (average)” value ([1]; inhibitor 2.4 mg/mL) was 32.495 DPM.

In the case of `C/C=C(/C=O)[C@@H](CC=O)CC(=O)OCCc1ccc(O)cc1` [O-4456, para-hydroxyphenylelenolic acid dialdehyde], the anti-COX-2 activity (COX-2) is given as “having anti-COX-2 activity”, the “% inhibition of HSL” value [1] is given as 98% and 98.42% and the “HSL Activity (DPM) (average)” value ([1]; inhibitor 0.4 mg/mL) is given as 123.5 DPM. For the same molecule, the “HSL Activity (DPM) (average)” value ([1]; inhibitor 0.8 mg/mL) was 52.6035 DPM, the “HSL Activity (DPM) (average)” value ([1]; inhibitor 1.2 mg/mL) was 51.145 DPM and the “HSL Activity (DPM) (average)” value ([1]; inhibitor 1.6 mg/mL) was 88.595 DPM. The “HSL Activity (DPM) (average)” value ([1]; inhibitor 2.0 mg/mL) was 49.56 DPM and the “HSL Activity (DPM) (average)” value ([1]; inhibitor 2.4 mg/mL) was 25.035 DPM.
